The values that follow come from patent US9670259B2, “Method of inhibiting angiogenesis using inhibitors of G-protein-coupled receptor kinase interacting protein-1 (GIT1)” (University of Rochester, priority 2013, dated 2017).

What all share (assay type): cell-based, human
One data set deals with Hey1. Description: Hey1 mRNA (qRT-PCR) and protein (western blot) after GIT1 depletion with siRNA in HUVECs. Conditions: compared to control siRNA. As to the method: (§1) Human umbilical vein endothelial cells (HUVECs) were isolated and grown in Medium 200 with low serum growth supplement (Cascade Biologics, Inc., Portland, Oreg.) as described previously (Carmeliet et al., Nature 436:193 (2005), which is hereby incorporated by reference in its entirety). GIT1 siRNA ([…]) (SEQ ID NO: 21) and control non-silencing siRNA([…]) (SEQ ID NO: 22) were designed and synthesized (Ambion) and Dll4 siRNA was purchased (Santa Cruz). The siRNA were transfected at 100 nM for 48 h as previously described by our laboratory (Yin et al., Mol. Cell Biol., 24:875 (2004), which is hereby incorporated by reference in its entirety). […]
(§2) For immunoblotting, cells were lysed in RIPA buffer (150 mM NaCl, 1% Nonidet P-40, […], 0.1% SDS, 50 mM Tris-HCl, pH 8.0). Protein concentrations in the lysates were determined. […] After incubating with fluorescence-conjugated secondary antibodies, immunoreactive proteins were visualized by an Odyssey infrared imaging system (LI-COR Biotechnology, Nebraska). […]
(§3) Total RNA from retinas and lungs of GIT1 WT and KO mice or HUVECs was obtained using TRIzol reagent (Invitrogen) according to the manufacturer's protocol. […] Target genes mRNA expression and mitochondrial DNA content were determined by qRT-PCR (Applied Biosystems). […]
For orientation: Real-time PCR tracks product formation cycle by cycle.

For another data set, the system named is Dll4. The data set is described as follows: Dll4 mRNA (qRT-PCR) and protein (western blot) after GIT1 depletion with siRNA in HUVECs. Conditions: siRNA 48 h, compared to control siRNA. As to the method: as §1, §2, §3
The test system of another data set is Notch1. Description: Notch1 expression and cleavage (N1-ICD) after GIT1 depletion with siRNA in HUVECs. The conditions noted are these: siRNA treated. The procedure:
Human umbilical vein endothelial cells (HUVECs) were isolated and grown in Medium 200 with low serum growth supplement (Cascade Biologics, Inc., Portland, Oreg.) as described previously (Carmeliet et al., Nature 436:193 (2005), which is hereby incorporated by reference in its entirety). GIT1 siRNA ([…]) (SEQ ID NO: 21) and control non-silencing siRNA([…]) (SEQ ID NO: 22) were designed and synthesized (Ambion) and Dll4 siRNA was purchased (Santa Cruz). The siRNA were transfected at 100 nM for 48 h as previously described by our laboratory (Yin et al., Mol. Cell Biol., 24:875 (2004), which is hereby incorporated by reference in its entirety). HEK293 cells were cultured in Dulbecco's modified Eagle's medium supplemented with 10% fetal bovine serum (FBS), penicillin, and streptomycin at 37° C. in 5% CO2. HEK293T cells were transfected by Lipofectamine/plus (Invitrogen).
For immunoblotting, cells were lysed in RIPA buffer (150 mM NaCl, 1% Nonidet P-40, […], 0.1% SDS, 50 mM Tris-HCl, pH 8.0). Protein concentrations in the lysates were determined. The protein samples were separated by SDS-PAGE, transferred to nitrocellulose membranes, and incubated with appropriate primary antibodies. After incubating with fluorescence-conjugated secondary antibodies, immunoreactive proteins were visualized by an Odyssey infrared imaging system (LI-COR Biotechnology, Nebraska). […]

The subject of the next data set is PLCγ. The data set is described as follows: VEGF induced PLCγ activation in HUVEC infected with SHD-Flag lentivirus. Conditions: lentivirus overexpression, VEGF 10 ng/mL. As to the method: (§4) In an effort to identify the potential GIT1 inhibitor peptides, a flag-tagged SHD domain of GIT1 (SHD-Flag) was cloned into a lentivirus vector.
(§5) HUVECs were seeded on 6 well plate at 80% confluence. The next day, cells were infected with control and SHD-Flag containing Lentivirus with Polybrene. After 1 day, infection media was changed with fresh complete M200 media (containing 5% FBS+1% Penicillin-Streptomycin and 2% LSGS). After 48 hours, cells were serum starved with serum free M200 media for 1 hour and stimulated with VEGF (10 ng/mL) for different time points ranging from 0 to 30 minutes. Next cells were lysed and used for western blot analysis to measure PLCγ and ERK1/2 activation. […] No effect of SHD overexpression on VEGF induced ERK1/2 activation was observed. Flag tagged SHD expression in HUVECs were confirmed by detecting Flag in the lysate

The next data set has as its system HUVEC. The data set is described as follows: HUVEC tube formation on matrigel after SHD overexpression. The conditions noted are these: HUVECs with VEGF on growth factor reduced matrigel, 16 hours, compared to control. As to the method:
In addition to PLCγ signaling, the effect of SHD overexpression on HUVEC tube formation in vitro was also assessed. Endothelial cells reorganize themselves in a 3D matrix like matrigel and form tubes which is an index of in vitro angiogenesis. After 48 hours, cells were cultured at a constant number (10^4 cells/well) with VEGF on growth factor reduced matrigel (30 uL) coated 96 well plate and incubated for 16 hours.

Another data set deals with ERK1/2. The data set is described as follows: VEGF induced ERK1/2 activation in HUVEC infected with SHD-Flag lentivirus. The conditions noted are these: lentivirus overexpression, VEGF 10 ng/mL. As to the method:
as §4, §5

On to “GIT1 siRNA: siRNA AAGCTGCCAAGAAGAAGCTAC (SEQ ID NO: 21), synthesized (Ambion) (listed as DNA, chemistry not given here)”, for which, in the data set on Hey1, the “increase of Hey1 mRNA expression” value worked out at 5.2±0.57 fold and the “increase of Hey1 protein expression” value worked out at 3.0±0.3 fold. In the data set with Dll4, the “increase of Dll4 mRNA expression” value is listed as 3.2±0.6 fold and the “increase of Dll4 protein expression” value is on record as 6.3±0.3 fold. Besides, in the data set with Notch1, the Notch1 expression result is listed as “no change”. Moreover, in the data set on Notch1 (normalized to total Notch1), the “enhancement of expression of N1-ICD” value came to 1.7±0.4 fold.

B1: SHD-Flag: flag-tagged SHD domain of GIT1 (residues 250-420 of SEQ ID NO: 1) cloned into a lentivirus vector (protein, listed as Homo sapiens)
chain: QMADSLDLSELAKAAKKKLQALSNRLFEELAMDVYDEVDRRENDAVWLATQNHSTLVTERSAVPFLPVNPEYSATRNQGRQKLARFNAREFATLIIDILSEAKRRQQGKSLSSPTDNLELSLRSQSDLDDQHDYDSVASDEDTDQEPLRSTGATRSNRARSMDSSDLSDGA
modifications: Flag tag; lentivirus vector
On to B1, for which the “VEGF induced PLCγ activation” value with PLCγ was “blocked VEGF induced PLCγ activation”. Besides, the “formation of tube-like structures” value in the data set with HUVEC is “inhibited the formation of tube-like structures”. Further, the “VEGF induced ERK1/2 activation” value in the data set on ERK1/2 is “No effect”.
